Key:
[1] = molecular target: T1, Alpha-2C adrenergic receptor (Homo sapiens, UniProt P18825)
T1 sequence (P18825 whole entry): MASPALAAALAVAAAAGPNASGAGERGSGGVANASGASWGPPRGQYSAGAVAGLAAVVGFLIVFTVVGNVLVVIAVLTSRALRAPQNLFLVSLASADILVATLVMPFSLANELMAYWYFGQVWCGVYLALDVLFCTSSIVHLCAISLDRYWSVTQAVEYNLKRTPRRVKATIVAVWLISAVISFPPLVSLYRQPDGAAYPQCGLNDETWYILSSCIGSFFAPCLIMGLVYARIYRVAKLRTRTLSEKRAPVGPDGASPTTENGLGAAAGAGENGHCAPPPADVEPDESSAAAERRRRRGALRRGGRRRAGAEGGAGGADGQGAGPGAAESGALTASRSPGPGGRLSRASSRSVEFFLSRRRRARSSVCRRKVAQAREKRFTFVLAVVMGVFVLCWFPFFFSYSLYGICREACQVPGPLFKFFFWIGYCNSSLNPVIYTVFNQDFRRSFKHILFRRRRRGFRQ
Description: Activity of compound against Alpha 2C (ADRA2C) adrenergic receptor by displacement of [3H]-rauwolscine

[2] = molecular target: T2, Muscarinic acetylcholine receptor M1 (Homo sapiens, UniProt P11229)
T2 sequence (P11229 whole entry): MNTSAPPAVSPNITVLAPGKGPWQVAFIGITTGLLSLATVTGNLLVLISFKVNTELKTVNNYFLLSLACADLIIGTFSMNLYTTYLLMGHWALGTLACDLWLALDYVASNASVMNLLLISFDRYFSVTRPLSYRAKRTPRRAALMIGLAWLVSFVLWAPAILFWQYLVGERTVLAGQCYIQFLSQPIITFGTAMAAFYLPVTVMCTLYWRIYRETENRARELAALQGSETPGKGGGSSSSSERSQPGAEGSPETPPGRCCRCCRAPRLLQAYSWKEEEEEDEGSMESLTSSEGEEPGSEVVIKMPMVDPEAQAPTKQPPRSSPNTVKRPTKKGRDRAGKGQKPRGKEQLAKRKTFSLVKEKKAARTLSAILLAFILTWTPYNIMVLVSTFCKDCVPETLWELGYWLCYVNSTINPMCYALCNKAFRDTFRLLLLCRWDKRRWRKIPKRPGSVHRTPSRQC

[3] = molecular target: Sigma intracellular receptor 2 (Homo sapiens, UniProt Q5BJF2); assay: Displacement of [3H]-DTG from the Sigma2 receptor
Sigma intracellular receptor 2, sequence (Q5BJF2 whole entry): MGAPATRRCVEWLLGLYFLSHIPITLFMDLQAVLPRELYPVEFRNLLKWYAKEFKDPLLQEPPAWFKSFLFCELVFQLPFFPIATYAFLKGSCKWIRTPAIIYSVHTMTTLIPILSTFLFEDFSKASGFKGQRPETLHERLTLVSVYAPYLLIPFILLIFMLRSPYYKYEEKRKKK

[4] = molecular target: Sigma non-opioid intracellular receptor 1 (Homo sapiens, UniProt Q99720)
Sigma non-opioid intracellular receptor 1, sequence (Q99720 whole entry): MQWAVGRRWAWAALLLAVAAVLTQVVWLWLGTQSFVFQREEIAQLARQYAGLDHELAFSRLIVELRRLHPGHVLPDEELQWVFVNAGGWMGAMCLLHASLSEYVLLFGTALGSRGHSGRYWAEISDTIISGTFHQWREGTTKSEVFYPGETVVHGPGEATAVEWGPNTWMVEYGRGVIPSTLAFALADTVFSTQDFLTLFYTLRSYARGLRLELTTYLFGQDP
Description: Displacement of [3H]-pentazocin from the Sigma1 receptor

[5] = molecular target: T3, Alpha-2B adrenergic receptor (Homo sapiens, UniProt P18089)
T3 sequence (P18089 whole entry): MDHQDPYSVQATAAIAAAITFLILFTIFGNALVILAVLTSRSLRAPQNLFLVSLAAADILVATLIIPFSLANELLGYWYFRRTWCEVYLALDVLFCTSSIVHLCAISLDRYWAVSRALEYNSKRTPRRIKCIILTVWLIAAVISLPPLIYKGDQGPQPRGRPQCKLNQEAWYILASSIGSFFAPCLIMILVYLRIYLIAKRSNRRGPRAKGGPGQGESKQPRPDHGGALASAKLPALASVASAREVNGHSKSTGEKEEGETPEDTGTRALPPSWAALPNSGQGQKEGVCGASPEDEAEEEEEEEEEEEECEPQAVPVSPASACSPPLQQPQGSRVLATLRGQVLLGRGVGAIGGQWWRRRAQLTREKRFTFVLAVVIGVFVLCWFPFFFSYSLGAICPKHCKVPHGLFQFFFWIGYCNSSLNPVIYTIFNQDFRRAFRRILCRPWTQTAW

[6] = molecular target: Muscarinic acetylcholine receptor M3 (Homo sapiens, UniProt P20309)
Muscarinic acetylcholine receptor M3, sequence (P20309 whole entry): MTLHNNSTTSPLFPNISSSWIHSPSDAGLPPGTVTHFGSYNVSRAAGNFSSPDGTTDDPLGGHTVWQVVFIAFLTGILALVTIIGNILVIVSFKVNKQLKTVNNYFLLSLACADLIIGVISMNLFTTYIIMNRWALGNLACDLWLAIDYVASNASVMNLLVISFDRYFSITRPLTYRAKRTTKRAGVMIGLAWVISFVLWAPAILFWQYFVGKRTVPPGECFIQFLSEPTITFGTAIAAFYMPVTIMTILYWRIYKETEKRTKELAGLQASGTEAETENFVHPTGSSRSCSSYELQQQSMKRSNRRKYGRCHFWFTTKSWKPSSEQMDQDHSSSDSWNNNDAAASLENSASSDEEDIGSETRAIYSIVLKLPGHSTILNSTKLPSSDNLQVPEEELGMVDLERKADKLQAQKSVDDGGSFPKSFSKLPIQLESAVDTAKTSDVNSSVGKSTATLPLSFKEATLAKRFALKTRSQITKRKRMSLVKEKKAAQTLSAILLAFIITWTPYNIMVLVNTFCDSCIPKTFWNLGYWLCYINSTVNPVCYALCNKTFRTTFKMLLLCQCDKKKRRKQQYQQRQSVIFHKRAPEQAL

[7] = molecular target: T4, Muscarinic acetylcholine receptor M4 (Homo sapiens, UniProt P08173); assay: Activity of compound against Muscarinic acetylcholine receptor M4 (CHRM4) by displacement of 3H-QNB
T4 sequence (P08173 whole entry): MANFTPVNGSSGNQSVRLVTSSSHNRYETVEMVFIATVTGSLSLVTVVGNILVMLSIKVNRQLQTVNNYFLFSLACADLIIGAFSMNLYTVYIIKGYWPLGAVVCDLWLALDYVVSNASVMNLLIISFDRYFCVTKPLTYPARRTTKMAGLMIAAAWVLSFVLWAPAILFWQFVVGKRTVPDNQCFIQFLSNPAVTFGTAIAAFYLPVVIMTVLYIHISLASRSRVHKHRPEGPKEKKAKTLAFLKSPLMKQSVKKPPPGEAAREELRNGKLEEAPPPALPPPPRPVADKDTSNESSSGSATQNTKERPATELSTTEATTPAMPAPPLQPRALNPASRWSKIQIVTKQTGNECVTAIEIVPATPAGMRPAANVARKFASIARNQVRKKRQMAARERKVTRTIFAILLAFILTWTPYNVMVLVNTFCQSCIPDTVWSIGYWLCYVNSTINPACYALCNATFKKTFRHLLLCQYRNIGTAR

[8] = molecular target: T5, Muscarinic acetylcholine receptor M5 (Homo sapiens, UniProt P08912); assay: Activity of compound against Muscarinic acetylcholine receptor M5 (CHRM5) by displacement of 3H-QNB
T5 sequence (P08912 whole entry): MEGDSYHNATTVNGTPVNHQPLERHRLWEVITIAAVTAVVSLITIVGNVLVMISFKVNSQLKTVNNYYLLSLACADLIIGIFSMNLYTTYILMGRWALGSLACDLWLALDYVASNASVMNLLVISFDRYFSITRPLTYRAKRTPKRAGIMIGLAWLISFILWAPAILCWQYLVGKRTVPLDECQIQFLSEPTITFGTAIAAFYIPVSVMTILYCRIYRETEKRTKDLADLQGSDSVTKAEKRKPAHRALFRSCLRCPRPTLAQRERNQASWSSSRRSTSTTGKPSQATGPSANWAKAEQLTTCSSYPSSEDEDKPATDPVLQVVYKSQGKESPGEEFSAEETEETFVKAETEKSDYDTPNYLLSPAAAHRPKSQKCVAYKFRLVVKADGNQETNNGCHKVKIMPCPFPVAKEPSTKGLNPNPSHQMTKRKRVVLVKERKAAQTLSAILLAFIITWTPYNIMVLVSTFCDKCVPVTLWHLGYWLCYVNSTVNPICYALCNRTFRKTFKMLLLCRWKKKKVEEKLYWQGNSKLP

[9] = molecular target: Voltage-gated inwardly rectifying potassium channel KCNH2 (Homo sapiens, UniProt Q12809)
Voltage-gated inwardly rectifying potassium channel KCNH2, sequence (Q12809 whole entry): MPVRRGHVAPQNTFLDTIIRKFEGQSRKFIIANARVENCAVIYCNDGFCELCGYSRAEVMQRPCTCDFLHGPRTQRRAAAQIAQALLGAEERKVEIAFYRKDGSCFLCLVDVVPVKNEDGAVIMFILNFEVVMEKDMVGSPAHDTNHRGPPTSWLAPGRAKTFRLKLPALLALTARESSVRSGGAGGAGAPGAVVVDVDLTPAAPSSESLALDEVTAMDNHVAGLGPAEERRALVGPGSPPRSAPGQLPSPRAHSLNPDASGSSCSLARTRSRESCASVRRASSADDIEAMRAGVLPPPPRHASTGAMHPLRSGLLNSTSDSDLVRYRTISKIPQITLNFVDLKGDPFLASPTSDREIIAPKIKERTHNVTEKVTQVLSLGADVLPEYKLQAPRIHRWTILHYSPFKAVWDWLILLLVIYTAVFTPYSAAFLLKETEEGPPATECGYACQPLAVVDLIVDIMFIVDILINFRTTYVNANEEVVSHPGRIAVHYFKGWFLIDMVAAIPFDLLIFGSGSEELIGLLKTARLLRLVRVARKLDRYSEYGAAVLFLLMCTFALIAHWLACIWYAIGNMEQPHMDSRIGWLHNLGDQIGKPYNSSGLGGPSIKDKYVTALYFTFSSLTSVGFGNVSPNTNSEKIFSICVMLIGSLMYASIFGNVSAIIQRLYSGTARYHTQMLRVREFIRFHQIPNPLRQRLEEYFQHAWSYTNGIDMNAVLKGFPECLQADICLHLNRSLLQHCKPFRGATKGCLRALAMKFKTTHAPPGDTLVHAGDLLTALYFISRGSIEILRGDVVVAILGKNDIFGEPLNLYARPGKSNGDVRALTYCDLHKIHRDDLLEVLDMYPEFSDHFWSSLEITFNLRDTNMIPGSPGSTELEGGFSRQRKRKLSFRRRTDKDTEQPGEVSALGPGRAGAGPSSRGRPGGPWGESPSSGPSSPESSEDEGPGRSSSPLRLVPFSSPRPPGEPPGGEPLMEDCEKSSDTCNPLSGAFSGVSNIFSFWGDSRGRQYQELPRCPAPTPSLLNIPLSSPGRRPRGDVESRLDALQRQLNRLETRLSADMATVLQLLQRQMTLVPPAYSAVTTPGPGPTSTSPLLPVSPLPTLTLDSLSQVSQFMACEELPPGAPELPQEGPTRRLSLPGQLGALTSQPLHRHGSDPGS
Description: hERG binding assays: Displacement of [3H]-Dofetilide (5 nM final) from hERG membranes obtained from HEK293 cells

CCCN1CCC=C(c2cc(-c3ccc(C)cc3)no2)C1
Ki [1]: 10 µM | Ki [2]: > 31.6 µM | Ki [3]: 0.794 µM | Ki [4]: 0.002 µM | Ki [5]: 20.4 µM | Ki [6]: 24 µM | Ki [7]: 24.5 µM | Ki [8]: 28.2 µM | Ki [9]: 10 µM

From ChEMBL document CHEMBL4303773 (Nature, 2020)
